Source: patent US20090082322A1, “Gender Differences in Experimental Aortic Aneurysm Formation” (THE REGENTS OF THE UNIVERSITY OF MICHIGAN, priority 2004, published 2009)

How the values were obtained:
MMP-9 [1] = test: MMP-9 activity (gelatin zymography) in media of IL-1β stimulated male RASMCs; type: cell-based, Sprague-Dawley rats; details: 10^−10 to 10^−6 mol/L, 48 hours with concurrent IL-1β stimulation
Experimental: Experimental interventions were carried out with confluent RASMCs at passages 3 through 8 in serum-free DMEM supplemented with antibiotics. Confluent monolayers of RASMCs were incubated in T-75 plates with IL-1β (2 ng/mL, from Sigma) for 72 hours. This concentration of IL-1β is found in human aortic aneurysms. After 72 hours of IL-1β stimulation, the RASMC-conditioned medium was collected for measurements of TIMP-1 activity, MMP-9 activity, and MMP-9 protein levels. The remaining SMCs were lysed in 1% sodium dodecyl sulfate (SDS), and total cellular protein was determined by a bicinchoninic acid protein assay (Pierce). In separate experiments, the previous protocol was followed, but male RASMCs were incubated with 5 different concentrations of 17-β-estradiol (1×10^−10 to 1×10^−6 mol/L) for 48 hours with concurrent IL-1β stimulation. Zymography supplies were purchased from Novex. MMP distribution after treatment of RASMC with IL-1β and increasing concentrations of 17-β-estradiol was determined. Gelatin substrate zymograms were prepared using precast 10% SDS-polyacrylamide gels containing 1 mg/mL of gelatin. Equal volumes of experimental media samples were diluted into 2× tris-glycine SDS sample buffer and electrophoretically separated under nonreducing conditions. […]

MMP-2 = MMP-2 activity in media of IL-1β stimulated aortic explants from pre-treated male rats; type: in vivo, rat
Experimental: Experiment III: Male rats underwent sustained 17-β-estradiol exposure using extended-release, subcutaneously implanted pellets prior to sacrifice and aortic explanation. The explants were stimulated with IL-1β, and MMP-2 activity in the conditioned media was then determined.

MMP-9 [2] = test: MMP-9 activity (zymography) in media of IL-1β stimulated aortic explants from pretreated male rats; type: in vivo, Sprague-Dawley rats; details: male rats treated 3 weeks with 0.1 mg 21-day extended release pellet, IL-1β stimulation; control 75.3, p<0.03
Experimental: Zymography supplies were purchased from Novex. MMP distribution after treatment of RASMC with IL-1β and increasing concentrations of 17-β-estradiol was determined. Gelatin substrate zymograms were prepared using precast 10% SDS-polyacrylamide gels containing 1 mg/mL of gelatin. Equal volumes of experimental media samples were diluted into 2× tris-glycine SDS sample buffer and electrophoretically separated under nonreducing conditions. Proteins were renatured in 2.7% Triton X-100, and the gels were incubated overnight at 37° C. in 50 mmol/L tris-HCl containing 5 mmol/L CaCl2 and 2% Brij 35. After overnight staining with Coomassie blue R-250 and de-staining for 4 hours with 10% acetic acid and 40% methanol in water, gelatinase activity was evident by clear bands against a dark blue background. Male Sprague-Dawley rats (190 g to 210 g) were obtained from Charles River Laboratories. Subcutaneous neck implantation of a 21-day slow release 0.1 mg 17-β-estradiol pellet (Innovative Research of America) was performed under general inhalational anesthesia. This particular estradiol dose results in serum estradiol levels at 2 to 3 weeks of 44.7±6.1 pg/mL compared with 15.0±2.2 pg/mL in control rats (p<0.05). Three weeks after pellet implantation, the infrarenal aorta was explanted under general anesthesia. […]

[3] = test system: elastase-perfused infrarenal abdominal aorta of male rats; test: Elastase perfusion aneurysm model after estrogen pellet implantation, aortic diameter; type: in vivo, Sprague-Dawley rats; details: 0.1-mg 21-day slow-release pellet s.c.
Experimental: Pancreatic porcine elastase perfusion of the rat aortas was performed as described previously. (Anidjar S, et al., Circulation, 82:973-981 (1990)). Male and female rats (n=15, each) were anesthetized with 2-2.5% isoflurane inhalation, and the infrarenal abdominal aorta was isolated under sterile conditions. Digital video micrometry was performed to directly measure outer aortic diameter. Specifically, images of the aorta were obtained using a Spot Insight Color Optical Camera (Diagnostic Instruments, Sterling Heights, Mich.) attached to an operating microscope (Nikon, Melville, N.Y.). Aortic diameters were then measured at the level of the left renal vein, the mid-infrarenal aorta, and the aortic bifurcation in triplicate using Image Pro Express software (Media Cybernetics, Inc, Silver Spring, Md.). Temporary proximal and distal aortic control was obtained using temporary 4-0 cotton suture loops, following which an aortotomy was made near the aortic bifurcation with a 30-gauge needle. […] At 7 or 14 days, aortas were re-exposed and aortic diameters were re-measured in vivo. […] The infrarenal aorta was then removed and subjected to histological study, immunohistochemistry, and quantitative polymerase chain reaction (PCR). […]

SMILES: C[C@]12CC[C@@H]3c4ccc(O)cc4CC[C@H]3[C@@H]1CC[C@@H]2O [17-β-estradiol]
- MMP-9 activity in male RASMC media (MMP-9 [1]): no difference
- MMP-2 activity in the media of whole-aortic explants (MMP-2; male rats pre-treated with extended-release s.c. pellets, explants stimulated with IL-1β, control 4.35×10^5, P=0.002): 2.0×10^5 O.D./mg protein
- decrease in MMP-2 activity in the media of whole-aortic explants (MMP-2; male rats pre-treated, vs control): 2 fold
- MMP-9 activity in conditioned media of aortic explants (MMP-9 [2]): 29.9 OD×10^3/mg protein
- aortic expansion (increase in aortic diameter) ([3]; 7 days after elastase perfusion, sham 197%±39%, P=0.010): 124%±19
- aneurysm size (increase in aortic diameter) ([3]; 14 days after elastase perfusion, sham 538%±105, P=0.0226): 241%±57
